From patent US20250107525A1, “CARBOXYLIC ACID-DERIVED KETO-DIESTERS AND USES THEREOF” (The United States of America, as represented by the …, priority 2023, published 2025) come the findings set out here.

Assay [1] concerns monocot bentgrass (Agrostis stolonifera). Put plainly: primary bioassay, bentgrass seeds exposed to 1000 μM solution for 7 days. It counts as in vivo. Conditions: for growth of bentgrass seedlings: compared to negative controls H2O or 10% acetone. The method, then:
The phytotoxic activity of compounds belonging to formula (III), (V), or (VII) classes were evaluated in a primary bioassay. The synthetic triketone herbicides mesotrione and sulcotrione were used as positive controls. The seeds of monocot bentgrass (Agrostis stolonifera) and dicot Arabidopsis (Arabidopsis thaliana) were exposed for 7 days to 1000 μM solution of each chemical. […] Chlorosis of treated seedlings is a common symptom of HPPD enzyme inhibition, and the obtained results are an initial confirmation this mode of action for these new compounds. Next, a detailed assessment of phytotoxic activity of potential herbicide candidates was accomplished by measurement a growth of duckweed (Lemna paucicostata) frond surface (Table 1). Mesotrione and sulcotrione were used as positive controls.
(§1) The synthetic triketone herbicides mesotrione and sulcotrione were used as positive controls. For comparative purposes, water as well as 10% acetone in water were used as negative controls. The seeds of monocot bentgrass (Agrostis stolonifera) and dicot Arabidopsis (Arabidopsis thaliana) were exposed for 7 days to 1000 μM solution of each chemical. […] Chlorosis of treated seedlings is a common symptom of a typical HPPD enzyme inhibition, and the obtained results are an initial confirmation this mode of action for these new compounds.
The synthetic triketone herbicides mesotrione and sulcotrione were used as positive controls. For comparative purposes, water as well as 10% acetone in water were used as negative controls. The seeds of monocot bentgrass (Agrostis stolonifera) and dicot Arabidopsis (Arabidopsis thaliana) were exposed for 7 days to 1000 μM solution of each chemical.
as §1, with “The phytotoxic activity of compounds belonging to formula (VII) (compounds (VII-1) and (VII-2)) was evaluated in a primary bioassay. The synthetic” for “The synthetic”

Assay [2] has as its system duckweed (Lemna paucicostata). Put plainly: secondary bioassay, dose-response curve based on growth rate of duckweed frond surface. It counts as in vivo. Conditions: for IC50: Lemna aequinoctialis, growth rate of duckweed (Lemna paucicostata) frond surface, read-out: IC50 (μM), herbicidal activity in a secondary bioassay; for activity compared with commercial herbicides bentazon, clomazone, glyphosate, glufosinate, asulam, chloropropham and EPTC in the same bioassay: comparison with data of Michel, A., et al. (2004). The method, then: The phytotoxic activity of compounds belonging to formula (III), (V), or (VII) classes were evaluated in a primary bioassay. […] The seeds of monocot bentgrass (Agrostis stolonifera) and dicot Arabidopsis (Arabidopsis thaliana) were exposed for 7 days to 1000 μM solution of each chemical. […] Next, a detailed assessment of phytotoxic activity of potential herbicide candidates was accomplished by measurement a growth of duckweed (Lemna paucicostata) frond surface (Table 1).
Next, a detailed assessment of the phytotoxic activity of the potential herbicide candidates was done by calculating dose-response curve base on growth rate of duckweed (Lemna paucicostata) frond surface.
Next, a detailed assessment of the phytotoxic activity of the potential herbicide candidates was done by calculating dose-response curves base on growth rate of duckweed (Lemna paucicostata) frond surface.
Next, a detailed assessment of the phytotoxic activity of the potential herbicide candidates was done by calculating dose-response curve based on the growth rate of duckweed (Lemna paucicostata) frond surface.

“Also recorded” adds a separate entry of the source.

`CC1(C)OC(=O)C(=C(O)c2ccc(C(F)(F)F)cc2[N+](=O)[O-])C(=O)O1` [III-2, 2,2-dimethyl-5-(2-nitro-4-(trifluoromethyl)benzoyl)-1,3-dioxane-4,6-dione]: in assay [1], the “chlorosis of bentgrass seedlings” value was “most of them were chlorotic; also recorded: most of them developed symptoms of chlorosis” and the “growth of bentgrass seedlings” value was “significantly impacted growth; also recorded: significantly reduced growth”. Moreover, in assay [2], the IC50 (in general, the concentration at which inhibition is half-maximal) was found to be 1.9 µM; the “activity compared with commercial herbicides bentazon, clomazone, glyphosate, glufosinate, asulam, chloropropham and EPTC in the same bioassay” value was “more active”.
In the case of `CC1(C)OC(=O)C(=C(O)c2ccc(S(C)(=O)=O)cc2[N+](=O)[O-])C(=O)O1` [III-3, 2,2-dimethyl-5-(4-(methylsulfonyl)-2-nitrobenzoyl)-1,3-dioxane-4,6-dione], in assay [1], the “chlorosis of bentgrass seedlings” value is listed as “did not develop chlorosis” and the “growth of bentgrass seedlings” value is “growth of some of them was reduced”.
In the case of `O=C1OC2(CCCC2)OC(=O)C1=C(O)CCc1ccccc1` [III-5, 8-(3-phenylpropanoyl)-6, 10-dioxaspiro [4.5] decane-7,9-dione], the IC50 in assay [2] amounted to 17.9 µM.
Same read-out and setting: in the case of `CC(C)CC(O)=C1C(=O)OC2(CCCC2)OC1=O` [VII-2, 8-(3-methylbutanoyl)-6,10-dioxaspiro [4.5] decane-7,9-dione] it was 3.3 µM; in that of `CC(C)CC(O)=C1C(=O)OC(C)(C)OC1=O` [VII-1, 2,2-dimethyl-5-(3-methylbutanoyl)-1,3-dioxane-4,6-dione], 1.14 µM.
Regarding `CC1(C)OC(=O)C(=C(O)CCc2ccccc2)C(=O)O1` [III-4, 2,2-dimethyl-5-(3-phenylpropanoyl)-1,3-dioxane-4,6-dione], the IC50 in assay [2] was 13.2 µM.
On to `CC1(C)OC(=O)C(=C(O)c2ccc(S(C)(=O)=O)cc2Cl)C(=O)O1` [III-1, 5-(2-chloro-4-(methylsulfonyl)benzoyl)-2,2-dimethyl-1,3-dioxane-4,6-dione], for which, in assay [1], the “chlorosis of bentgrass seedlings” value was “did not develop chlorosis” and the “growth of bentgrass seedlings” value is on record as “growth of some of them was reduced”.
`CCCC1(CCC)OC(=O)C(=C(O)CCc2ccccc2)C(=O)O1` [III-6, 5-(3-phenylpropanoyl)-2,2-dipropyl-1,3-dioxane-4,6-dione]: in assay [2], the half-maximal inhibitory concentration (IC50) stood at 2.6 µM; the “activity compared with commercial herbicides bentazon, clomazone, glyphosate, glufosinate, asulam, chloropropham and EPTC in the same bioassay” value is on record as “more active”.
